{
  "source": "patent US20230303540A1",
  "about": "(Merck Sharp & Dohme LLC, priority 2020, published 2023)",
  "data": [
    {"target": "GST-tagged truncated human mutant G2019S LRRK2 (Homo sapiens, UniProt Q5S007, G2019S)", "assay": "LRRK2 G2019S Km ATP LanthaScreen assay", "format": "biochemical", "conditions": "134 μM ATP (Km ATP), LRRKtide substrate, mean IC50 values; read-out: LRRK2 pIC50 (converted)", "procedure,_shortened": "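Compound preincubated 15 min at room temperature with enzyme in pH 8.5 Tris buffer (10 mM MgCl2). Then a 90 min reaction at ambient temperature with 134 μM (Km) ATP and fluorescein-LRRKtide. EDTA stop, Tb anti-phospho antibody TR-FRET; […]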", "units": {"IC50": "nM"}, "values": [
      {"smiles": "CC1CN(C2COCC2O)CCN1c1cc2nc(Nc3cnn(C4CC4)c3Cl)ncc2cc1Cl", "note": "(single isomer, unassigned) [Ex-12.9, (3S,4S) or (3R, 4R)-4-((R) or (S)-4-(6-chloro-2-((5-chloro-1-cyclopropyl-1H-pyrazol-4-yl)amino)quinazolin-7-yl)-3-methylpiperazin-1-yl)tetrahydrofuran-3-ol]", "IC50": 8.64},
      {"smiles": "CC1(O)CCN(c2cc3nc(Nc4cnn(C5CC5)c4Cl)ncc3cc2C#N)CC1", "note": "[Ex-3.54, 2-[(5-chloro-1-cyclopropyl-1H-pyrazol-4-yl)amino]-7-(4-hydroxy-4-methylpiperidin-1-yl)quinazoline-6-carbonitrile]", "IC50": 8.43},
      {"smiles": "Cc1c(Nc2ncc3cc(Cl)c(N4CCC(C)(O)C(C)C4)cc3n2)cnn1C1CC1", "note": "(single isomer, unassigned) [Ex-3.47, (3R,4R) or (3S,4S) or (3R,4S) or (3S,4R) 1-{6-chloro-2-[(1-cyclopropyl-5-methyl-1H-pyrazol-4-yl)amino]quinazolin-7-yl}-3,4-dimethylpiperidin-4-ol]", "IC50": 10.2},
      {"smiles": "O[C@@H]1COC[C@@H]1N1CCN(c2nc3nc(Nc4cnn(C5CC5)c4Cl)ncc3cc2Cl)CC1", "note": "(single isomer, unassigned) [Ex-16.2, (3S,4S) or (3R, 4R)-4-(4-(6-Chloro-2-((5-chloro-1-cyclopropyl-1H-pyrazol-4-yl)amino)pyrido[2,3-d]pyrimidin-7-yl)piperazin-1-yl)tetrahydrofuran-3-ol]", "IC50": 126},
      {"smiles": "Cc1cc2cnc(Nc3cnn(C)c3C)nc2cc1N1CCN([C@]2(C)COC[C@@H]2O)CC1", "note": "[Ex-2.1, (3R,4R)-4-(4-(2-((1,5-Dimethyl-1H-pyrazol-4-yl)amino)-6-methylquinazolin-7-yl)piperazin-1-yl)-4-methyltetrahydrofuran-3-ol]", "IC50": 0.576},
      {"smiles": "Cc1nsc(Nc2ncc3ccc(N4C(=O)OC[C@@H]4C)cc3n2)c1C", "note": "[Ex-7.12, (4S)-3-{2-[(3,4-dimethyl-1,2-thiazol-5-yl)amino]quinazolin-7-yl}-4-methyl-1,3-oxazolidin-2-one]", "IC50": 0.625},
      {"smiles": "O[C@@H]1COC[C@@H]1N1CCN(c2nc3nc(Nc4cnn(C5CC5)c4Cl)ncc3cc2Cl)CC1", "note": "(single isomer, unassigned) [Ex-16.1, (3S,4S) or (3R, 4R)-4-(4-(6-Chloro-2-((5-chloro-1-cyclopropyl-1H-pyrazol-4-yl)amino)pyrido[2,3-d]pyrimidin-7-yl)piperazin-1-yl)tetrahydrofuran-3-ol]", "IC50": 15.6},
      {"smiles": "CCn1ncc(Nc2ncc3ccc(N4C(=O)CCC4C)cc3n2)c1C", "note": "(single isomer, unassigned) [Ex-7.17, (R) or (S) 1-{2-[(1-ethyl-5-methyl-1H-pyrazol-4-yl)amino]quinazolin-7-yl}-5-methylpyrrolidin-2-one]", "IC50": 54.9},
      {"smiles": "Cc1c(Nc2ncc3cc(Cl)c(N4CCN(C5COC5)[C@@H](C)C4)cc3n2)cnn1CCF", "note": "[Ex-4.14, 6-chloro-N-[1-(2-fluoroethyl)-5-methyl-1H-pyrazol-4-yl]-7-[(3S)-3-methyl-4-(oxetan-3-yl)piperazin-1-yl]quinazolin-2-amine]", "IC50": 0.969},
      {"smiles": "CN1CCC2(CCN(c3cc4nc(Nc5cnn(C6(C)CC6)c5Cl)ncc4cc3Cl)C2)C1", "note": "(centres unmarked) [Ex-4.42, 6-chloro-N-[5-chloro-1-(1-methylcyclopropyl)-1H-pyrazol-4-yl]-7-(7-methyl-2,7-diazaspiro[4.4]nonan-2-yl)quinazolin-2-amine]", "IC50": 6.55},
      {"smiles": "Cc1nscc1Nc1ncc2cc(Cl)c(N3CCN(C4(C)COC4)CC3)cc2n1", "note": "[Ex-4.67, 6-chloro-7-[4-(3-methyloxetan-3-yl)piperazin-1-yl]-N-(3-methyl-1,2-thiazol-4-yl)quinazolin-2-amine]", "IC50": 23.8},
      {"smiles": "CN1CCC2(CCN(c3cc4nc(Nc5cnn(CC(C)(C)O)c5Cl)ncc4cc3Cl)C2)C1", "note": "(centres unmarked) [Ex-1.13, 1-(5-chloro-4-{[6-chloro-7-(7-methyl-2,7-diazaspiro[4.4]nonan-2-yl)quinazolin-2-yl]amino}-1H-pyrazol-1-yl)-2-methylpropan-2-ol]", "IC50": 21},
      {"smiles": "CNc1cc2nc(Nc3cnn(C4CCN(C5(C)COC5)CC4)c3Cl)ncc2cc1Cl", "note": "[Ex-3.44, 6-chloro-N~2~-{5-chloro-1-[1-(3-methyloxetan-3-yl)piperidin-4-yl]-1H-pyrazol-4-yl}-N~7~-methyl-quinazoline-2,7-diamine]", "IC50": 19.5},
      {"smiles": "Cc1c(Nc2ncc3cc(Cl)c(N4CCC(O)CC4)cc3n2)cnn1C1CC1", "note": "[Ex-3.14, 1-{6-chloro-2-[(1-cyclopropyl-5-methyl-1H-pyrazol-4-yl)amino]quinazolin-7-yl}piperidin-4-ol]", "IC50": 0.106},
      {"smiles": "CC1(O)CC2(CN(c3cc4nc(Nc5cnn(C6(C)CC6)c5Cl)ncc4cc3Cl)C2)C1", "note": "[Ex-4.27, 2-(6-chloro-2-{[5-chloro-1-(1-methylcyclopropyl)-1H-pyrazol-4-yl]amino}quinazolin-7-yl)-6-methyl-2-azaspiro[3.3]heptan-6-ol]", "IC50": 1.6},
      {"smiles": "COCC12CC(n3cc(Nc4ncc5cc(Cl)c(N6CCC7(CC6)COC(CO)C7)cc5n4)cn3)(C1)C2", "note": "(single isomer, unassigned) [Ex-3.16, (R) or (S)-{8-[6-chloro-2-({1-[3-(methoxymethyl)bicyclo[1.1.1]pentan-1-yl]-1H-pyrazol-4-yl}amino)quinazolin-7-yl]-2-oxa-8-azaspiro[4.5]decan-3-yl}methanol]", "IC50": 0.218},
      {"smiles": "Cc1cc2cnc(Nc3cnn(C45CC(C4)C5)c3Cl)nc2cc1N1CCN(C2COCC2O)CC1", "note": "(single isomer, unassigned) [Ex-5.13, (3S,4S) or (3R,4R) 4-(4-(2-((1-(bicyclo[1.1.1]pentan-1-yl)-5-chloro-1H-pyrazol-4-yl)amino)-6-methylquinazolin-7-yl)piperazin-1-yl)tetrahydrofuran-3-ol]", "IC50": 1.05},
      {"smiles": "CC1(N2CCN(c3cc4nc(Nc5cnn(C6CC6)c5)ncc4cc3Cl)CC2)COC1", "note": "[Ex-4.18, 6-chloro-N-(1-cyclopropyl-1H-pyrazol-4-yl)-7-[4-(3-methyloxetan-3-yl)piperazin-1-yl]quinazolin-2-amine]", "IC50": 2.39},
      {"smiles": "CC(C)(C)Cn1cc(Nc2ncc3cc(Cl)c(N4CCN(C5(C)COC5)CC4)cc3n2)cn1", "note": "[Ex-4.64, 6-chloro-N-[1-(2,2-dimethylpropyl)-1H-pyrazol-4-yl]-7-[4-(3-methyloxetan-3-yl)piperazin-1-yl]quinazolin-2-amine]", "IC50": 9.73},
      {"smiles": "Cc1cc2cnc(Nc3cnn(C45CC(F)(C4)C5)c3Cl)nc2cc1N1CCNCC1", "note": "[Ex-5.15, N-(5-chloro-1-(3-fluorobicyclo[1.1.1]pentan-1-yl)-1H-pyrazol-4-yl)-6-methyl-7-(piperazin-1-yl)quinazolin-2-amine]", "IC50": 25.1},
      {"smiles": "CC1(O)CCN(c2cc3nc(Nc4cnn(C5(C)CC5)c4Cl)ncc3cc2Cl)CC1", "note": "[Ex-4.34, 1-(6-chloro-2-{[5-chloro-1-(1-methylcyclopropyl)-1H-pyrazol-4-yl]amino}quinazolin-7-yl)-4-methylpiperidin-4-ol]", "IC50": 0.625},
      {"smiles": "Cc1c(Nc2ncc3cc(Cl)c(N4CCN(C5CCCC5C#N)CC4)cc3n2)cnn1C1CC1", "note": "(single isomer, unassigned) [Ex-1.7, (3S,4S or 3R,4R)-2-(4-{6-chloro-2-[(1-cyclopropyl-5-methyl-1H-pyrazol-4-yl)amino]quinazolin-7-yl}piperazin-1-yl)cyclopentane-1-carbonitrile]", "IC50": 6.91},
      {"smiles": "Cc1cc2cnc(Nc3cnn(C45CC(C4)C5)c3Cl)nc2cc1N1CCN(C2COCC2O)CC1", "note": "(single isomer, unassigned) [Ex-5.12, (3S,4S) or (3R,4R) 4-(4-(2-((1-(bicyclo[1.1.1]pentan-1-yl)-5-chloro-1H-pyrazol-4-yl)amino)-6-methylquinazolin-7-yl)piperazin-1-yl)tetrahydrofuran-3-ol]", "IC50": 5.17},
      {"smiles": "OC1C2CC1CN(c1cc3nc(Nc4cnn(C5CC5)c4Cl)ncc3cc1Cl)C2", "note": "(centres unmarked) [Ex-1.35, 3-{6-chloro-2-[(5-chloro-1-cyclopropyl-1H-pyrazol-4-yl)amino]quinazolin-7-yl}-3-azabicyclo[3.1.1]heptan-6-ol]", "IC50": 3.48},
      {"smiles": "CC1(O)CCN(c2cc3nc(Nc4cnn(C5CC5)c4Cl)ncc3cc2Cl)CC1", "note": "[Ex-3.26, 1-{6-chloro-2-[(5-chloro-1-cyclopropyl-1H-pyrazol-4-yl)amino]quinazolin-7-yl}-4-methylpiperidin-4-ol]", "IC50": 5.63},
      {"smiles": "Clc1cc2cnc(Nc3cnn(C4CC4)c3Cl)nc2cc1N1CCc2[nH]ncc2C1", "note": "[Ex-3.25, 6-chloro-N-(5-chloro-1-cyclopropyl-1H-pyrazol-4-yl)-7-(1,4,6,7-tetrahydro-5H-pyrazolo[4,3-c]pyridin-5-yl) quinazolin-2-amine]", "IC50": 1.21},
      {"smiles": "CC(C)Nc1cc2nc(Nc3cnn(C4CCN(C5(C)COC5)CC4)c3Cl)ncc2cc1Cl", "note": "[Ex-3.46]", "IC50": 15},
      {"smiles": "Cc1c(Nc2ncc3ccc(N4C(=O)OC[C@@H]4C)cc3n2)cnn1C1C[C@@H](C)O[C@@H](C)C1", "note": "(single isomer, unassigned) [Ex-7.4]", "IC50": 6.75},
      {"smiles": "Cc1c(Nc2ncc3cc(Cl)c(N4CCN(C5(C)COC(C)(C)C5)CC4)cc3n2)cnn1C1CC1", "note": "(single isomer, unassigned) [Ex-12.3]", "IC50": 186},
      {"smiles": "OCC1CCN(c2cc3nc(Nc4cnn(CC(F)F)c4Cl)ncc3cc2Cl)C1", "note": "(centres unmarked) [Ex-1.15, [1-(6-chloro-2-{[5-chloro-1-(2,2-difluoroethyl)-1H-pyrazol-4-yl]amino}quinazolin-7-yl)pyrrolidin-3-yl]methanol]", "IC50": 5.49},
      {"smiles": "Cc1c(Nc2ncc3ccc(N4C(=O)OCC4C4CC4)cc3n2)cnn1C1CCOCC1", "note": "(single isomer, unassigned) [Ex-7.13, (R) or (S) 4-cyclopropyl-3-(2-{[5-methyl-1-(oxan-4-yl)-1H-pyrazol-4-yl]amino}quinazolin-7-yl)-1,3-oxazolidin-2-one]", "IC50": 11.4},
      {"smiles": "Cn1cc(Nc2ncc3ccc(N4C(=O)C5CCC4C5)cc3n2)c(C(F)(F)F)n1", "note": "(centres unmarked) [Ex-7.10, 2-(2-{[1-methyl-3-(trifluoromethyl)-1H-pyrazol-4-yl]amino}quinazolin-7-yl)-2-azabicyclo[2.2.1]heptan-3-one]", "IC50": 5.14}
    ]}
  ]
}
